Source: patent US11661397B2, “1,4-disubstituted imidazole derivative” (Sumitomo Pharma Co., Ltd., priority 2015, dated 2023)

How the values were obtained:
HCT-116 cells [1] = experiment: Inhibition of sphere-forming ability of cancer cells (Test Example 1); type: cell-based; details: Homo sapiens, 96 h; HCT-116 spheres, non-adherent, serum-free, 4 days, CellTiter-Glo; read-out: Sphere IC50 value (concentration for 50% inhibition of cell proliferation)
Description: (§1) HCT-116 cells were available from the American Type Culture Collection (ATCC). HCT-116 cells were cultured at 37° C. and 5% CO2 using the McCoy's 5a medium containing 10% fetal bovine serum (FBS) and 1% penicillin/streptomycin. […] The test compounds were added into each well to adjust the final concentration of DMSO to 0.1%, and the cells were cultured for 4 days.

HCT-116 cells [2] = experiment: Test for inhibiting sphere-forming ability of cancer cells in the presence of BSA (Test Example 2); type: cell-based; details: Homo sapiens, 96 h; HCT-116 spheres, 5% bovine serum albumin (BSA), 4 days, CellTiter-Glo; read-out: Sphere IC50 value (concentration for 50% inhibition of cell proliferation)
Description: as §1

Compound	IC50 (HCT-116 cells [1]) [nM]	IC50 (HCT-116 cells [2]) [nM]
O=C(Nc1cn(Cc2cccc(C(F)(F)F)c2)cn1)c1ccc(CO)cn1 [Example 1, 5-(Hydroxymethyl)-N-{1-[3-(trifluoromethyl)benzyl]-1H-imidazol-4-yl}picolinamide]	30	350
O=C(Nc1nc(CO)cs1)c1cn(Cc2cc(F)c(F)c(F)c2)cn1 [Example 3]	< 10	51
[2H]C([2H])(O)c1ccc(C(=O)Nc2cn(Cc3cccc(C(F)(F)F)c3)cn2)cn1 [Example 4, 6-[Hydroxy (^2H2)methyl]-N-{1-[3-(trifluoromethyl)benzyl]-1H-imidazol-4-yl}nicotinamide]	< 10	61
O=C(Nc1cn(Cc2cccc(C(F)(F)F)c2)cn1)c1csc(CO)n1 [Example 7]	24	520
COCc1ccc(C(=O)Nc2cn(Cc3cccc(C(F)(F)F)c3)cn2)cn1 [Example 9]	5040	
O=C(Nc1cn(Cc2cc(F)c(F)c(F)c2)cn1)c1ccc(CO)nc1 [Example 10, 6-(Hydroxymethyl)-N-[1-(3,4,5-trifluorobenzyl)-1H-imidazol-4-yl]nicotinamide]	7	7
O=C(Nc1cn(Cc2cccc(Cl)c2)cn1)c1ccc(CO)nc1 [Example 11]	56	
O=C(Nc1cn(Cc2cccc(C(F)(F)F)c2)cn1)c1ccc(/C=C/CO)nc1 [Example 14]	6040	
C=C(CO)c1ccc(C(=O)Nc2cn(Cc3cccc(C(F)(F)F)c3)cn2)cn1 [Example 15]	710	5770
CCOCc1ccc(C(=O)Nc2cn(Cc3cc(F)c(F)c(F)c3)cn2)cn1 [Example 16]	892	1450
O=C(Nc1cn(Cc2cccc(C(F)(F)F)c2)cn1)c1cnc(CO)c(C(F)(F)F)c1 [Example 19, 6-(hydroxymethyl)-5-(trifluoromethyl)-N-{1-[3-(trifluoromethyl)benzyl]-1H-imidazol-4-yl}nicotinamide]	70	403
O=C(Nc1cn(Cc2cccc(C(F)(F)F)c2)cn1)c1cnc(CO)cn1 [Example 20]	53	313
O=C(Nc1ccc(CO)nc1)c1cn(Cc2cc(F)c(F)c(F)c2)cn1 [Example 22, N-[6-(Hydroxymethyl)pyridin-3-yl]-1-(3,4,5-trifluorobenzyl)-1H-imidazole-4-carboxamide]	< 10	< 10
NCc1ccc(C(=O)Nc2cn(Cc3cccc(C(F)(F)F)c3)cn2)cn1 [Example 24, 6-(Aminomethyl)-N-{1-[3-(trifluoromethyl)benzyl]-1H-imidazol-4-yl}nicotinamide ditrifluoroacetate]	61	696
CC(=O)NCc1ccc(C(=O)Nc2cn(Cc3cccc(C(F)(F)F)c3)cn2)cn1 [Example 25, 6-[(Acetylamino)methyl]-N-{1-[3-(trifluoromethyl)benzyl]-1H-imidazol-4-yl}nicotinamide]	4480	4970
CNCc1ccc(C(=O)Nc2cn(Cc3cccc(C(F)(F)F)c3)cn2)cn1 [Example 26, 6-[(Methylamino)methyl]-N-{1-[3-(trifluoromethyl)benzyl]-1H-imidazol-4-yl}nicotinamide]	824	
O=C(Nc1cn(Cc2cccc(C(F)(F)F)c2)cn1)c1cnc(C(O)CO)c(F)c1 (stereo not drawn) [Example 27]	695	6230
O=C(Nc1cn(Cc2cccc(C(F)(F)F)c2)cn1)c1cnc(C(O)CO)c(Cl)c1 (stereo not drawn) [Example 28]	847	4580
O=C(Nc1cn(Cc2cccc(C(F)(F)F)c2)cn1)c1cnc(C(O)CO)c(Br)c1 (stereo not drawn) [Example 29]	633	3500
O=C(Nc1cn(Cc2cccc(C(F)(F)F)c2)cn1)c1cnc(CO)c(F)c1 [Example 30, 5-Fluoro-6-(hydroxymethyl)-N-{1-[3-(trifluoromethyl)benzyl]-1H-imidazol-4-yl}nicotinamide]	69	563
O=C(Nc1cn(Cc2cccc(C(F)(F)F)c2)cn1)c1cnc(CO)c(Cl)c1 [Example 31]	< 10	< 10
Cc1nc(CO)ccc1C(=O)Nc1cn(Cc2cccc(C(F)(F)F)c2)cn1 [Example 34]	7390	
O=C(Nc1cn(Cc2cccc(C(F)(F)F)c2)cn1)c1cnc(CO)cc1Cl [Example 36]	74	481
O=C(Nc1cn(Cc2cccc(C(F)(F)F)c2)cn1)c1coc(CO)n1 [Example 37]	238	451
Cc1cc(C(=O)Nc2cn(Cc3cccc(C(F)(F)F)c3)cn2)cnc1CO [Example 42, 6-(Hydroxymethyl)-5-methyl-N-{1-[3-(trifluoromethyl)benzyl]-1H-imidazol-4-yl}nicotinamide]	< 10	60
C=Cc1cc(C(=O)Nc2cn(Cc3cccc(C(F)(F)F)c3)cn2)cnc1CO [Example 43, 5-Ethenyl-6-(hydroxymethyl)-N-{1-[3-(trifluoromethyl)benzyl]-1H-imidazol-4-yl}nicotinamide]	5600	6510
Cc1sc(C(=O)Nc2cn(Cc3cc(F)c(F)c(F)c3)cn2)nc1CO [Example 47, 4-(Hydroxymethyl)-5-methyl-N-[1-(3,4,5-trifluorobenzyl)-1H-imidazol-4-yl]-1,3-thiazole-2-carboxamide]	669	5460
O=C(/C=C/c1ccc(CO)nc1)Nc1cn(Cc2cccc(C(F)(F)F)c2)cn1 [Example 51]	70	630
CC(C)(O)c1ccc(/C=C/C(=O)Nc2cn(Cc3cccc(C(F)(F)F)c3)cn2)cn1 [Example 53, (2E)-3-[6-(2-Hydroxypropan-2-yl)pyridin-3-yl]-N-{1-[3-(trifluoromethyl)benzyl]-1H-imidazol-4-yl}prop-2-enamide]	7200	< 10000
O=C(Nc1cn(Cc2cccc(Cl)c2)cn1)c1cnc(CO)c(C(F)F)c1 [Example 55, N-[1-(3-chlorobenzyl)-1H-imidazol-4-yl]-5-(difluoromethyl)-6-(hydroxymethyl)nicotinamide]	75	619

Further lines, results first:

IC50 (HCT-116 cells [1]) [nM]	IC50 (HCT-116 cells [2]) [nM]	Compound
629	605	O=C(COc1ccc(CO)nc1)Nc1cn(Cc2cc(F)c(F)c(F)c2)cn1 [Example 2]
8400		CC(C)(O)c1ccc(C(=O)Nc2cn(Cc3cccc(C(F)(F)F)c3)cn2)cn1 [Example 5, 6-(2-Hydroxypropan-2-yl)-N-{1-[3-(trifluoromethyl)benzyl]-1H-imidazol-4-yl}nicotinamide]
3650	6970	CC(O)c1ccc(C(=O)Nc2cn(Cc3cccc(C(F)(F)F)c3)cn2)cn1 (stereo not drawn) [Example 6, 6-(1-Hydroxyethyl)-N-{1-[3-(trifluoromethyl)benzyl]-1H-imidazol-4-yl}nicotinamide]
77	578	O=C(Nc1cn(Cc2cc(F)c(F)c(F)c2)cn1)c1csc(CO)n1 [Example 8]
675	735	O=C(Nc1cn(Cc2cc(F)c(F)c(F)c2)cn1)c1ccc(CCO)nc1 [Example 13]
653	767	O=C(Nc1cn(Cc2cccc(C(F)(F)F)c2)cn1)c1cc(CO)on1 [Example 21]
79	84	O=C(Nc1ccc2nc(CO)ccc2c1)c1cn(Cc2cc(F)c(F)c(F)c2)cn1 [Example 23, N-[2-(hydroxymethyl)quinolin-6-yl]-1-(3,4,5-trifluorobenzyl)-1H-imidazole-4-carboxamide]
< 10	68	O=C(Nc1cn(Cc2cccc(C(F)(F)F)c2)cn1)c1cnc(CO)c(Br)c1 [Example 32]
9800		COc1cc(C(=O)Nc2cn(Cc3cccc(C(F)(F)F)c3)cn2)cnc1CO [Example 33]
3760	6110	Cc1cc(CO)ncc1C(=O)Nc1cn(Cc2cccc(C(F)(F)F)c2)cn1 [Example 35]
61	81	O=C(Nc1cn(Cc2cc(F)c(F)c(F)c2)cn1)c1cnc(CO)c(Br)c1 [Example 38]
122	629	O=C(Nc1cn(Cc2cccc(C(F)(F)F)c2)cn1)c1cnc(CO)s1 [Example 40, 2-(Hydroxymethyl)-N-{1-[3-(trifluoromethyl)benzyl]-1H-imidazol-4-yl}-1,3-thiazole-5-carboxamide]
51	59	O=C(Nc1cn(Cc2cc(F)c(F)c(F)c2)cn1)c1cnc(CO)c(Cl)c1 [Example 41, 5-Chloro-6-(hydroxymethyl)-N-[1-(3,4,5-trifluorobenzyl)-1H-imidazol-4-yl]nicotinamide]
758	5110	CCc1cc(C(=O)Nc2cn(Cc3cccc(C(F)(F)F)c3)cn2)cnc1CO [Example 44, 5-Ethyl-6-(hydroxymethyl)-N-{1-[3-(trifluoromethyl)benzyl]-1H-imidazol-4-yl}nicotinamide]
95	571	Cc1nc(C(=O)Nc2cn(Cc3cc(F)c(F)c(F)c3)cn2)sc1CO [Example 48, 5-(Hydroxymethyl)-4-methyl-N-[1-(3,4,5-trifluorobenzyl)-1H-imidazol-4-yl]-1,3-thiazole-2-carboxamide]
50	410	O=C(/C=C/c1cnc(CO)c(Cl)c1)Nc1cn(Cc2cccc(C(F)(F)F)c2)cn1 [Example 52]
148	603	O=C(Nc1cn(Cc2ccc(F)c(F)c2)cn1)c1cnc(CO)c(C(F)F)c1 [Example 54, N-[1-(3,4-difluorobenzyl)-1H-imidazol-4-yl]-5-(difluoromethyl)-6-(hydroxymethyl)nicotinamide]
